These results are taken from patent publication US20240294885A1, “ENGINEERED ENZYMES AND METHODS OF MAKING AND USING” (priority 2021, published 2024).

Holding throughout (assay type): biochemical
The target in assay [1] is T1, Mycobacterium avium CAR (SEQ ID NO:153) Variant 1 of Table 14, K275D N276S F278S A283C I300G N335D (Mycobacterium avium, UniProt A0ACD7BNV2, A283C/F278S/G391S/I300G/K275D/N276S/N335D). Nature of the assay: CAR lysate assay with 30 mM 6ACA ± 0.25M HMD (Table 14), CAR Variant 1. Conditions: CAR Variant 1, Table 14, 6ACA.
Assay [2] concerns the target Mycobacterium avium CAR (SEQ ID NO:153) Variant 1 of Table 14 (K275D N276S F278S A283C I300G N335D), Variant 38 A282P M296A N401T F425L (Mycobacterium avium, UniProt A0ACD7BNV2, A282P/A283C/F278S/F425L/G391S/I300G/K275D/M296A/N276S/N335D/N401T). Nature of the assay: CAR lysate assay with 30 mM 6ACA ± 0.25M HMD (Table 14), Variant 38. Particulars: Variant 38, Table 14, 6ACA.

The target of assay [3] is T1, Mycobacterium avium CAR (SEQ ID NO:153) Variant 1 of Table 14, K275D N276S F278S A283C I300G N335D. Nature of the assay: CAR lysate assay with 10 mM 6ACA ± 125 mM HMD or 0.25M HMD (Table 15), CAR Variant 1.
In assay [4] the target is Mycobacterium avium CAR (SEQ ID NO:153) Variant 1 of Table 14 (K275D N276S F278S A283C I300G N335D), Variant 4 S274P (Mycobacterium avium, UniProt A0ACD7BNV2, A283C/F278S/G391S/I300G/K275D/N276S/N335D/S274P). Nature of the assay: CAR lysate assay with 30 mM 6ACA ± 0.25M HMD (Table 14), Variant 4. Conditions: Variant 4, Table 14, 6ACA.
In assay [5] the target is Mycobacterium avium CAR (SEQ ID NO:153) Variant 1 of Table 14 (K275D N276S F278S A283C I300G N335D), Variant 33 A282P M296A F425L (Mycobacterium avium, UniProt A0ACD7BNV2, A282P/A283C/F278S/F425L/G391S/I300G/K275D/M296A/N276S/N335D). Kind of assay: CAR lysate assay with 30 mM 6ACA ± 0.25M HMD (Table 14), Variant 33. Conditions: Variant 33, Table 14, 6ACA.
Assay [6] has as its target Mycobacterium avium CAR (SEQ ID NO:153) Variant 1 of Table 14 (K275D N276S F278S A283C I300G N335D), Variant 37 A282P M296A M389S N401T F425N (Mycobacterium avium, UniProt A0ACD7BNV2, A282P/A283C/F278S/F425N/G391S/I300G/K275D/M296A/M389S/N276S/N335D/N401T). Nature of the assay: CAR lysate assay with 30 mM 6ACA ± 0.25M HMD (Table 14), Variant 37. Particulars: Variant 37, Table 14, 6ACA.

Assay [7] addresses Mycobacterium avium CAR (SEQ ID NO:153) Variant 1 of Table 14 (K275D N276S F278S A283C I300G N335D), Variant 35 A282P M296A M389S F425N (Mycobacterium avium, UniProt A0ACD7BNV2, A282P/A283C/F278S/F425N/G391S/I300G/K275D/M296A/M389S/N276S/N335D). Kind of assay: CAR lysate assay with 30 mM 6ACA ± 0.25M HMD (Table 14), Variant 35. Conditions: Variant 35, Table 14, 6ACA.
For assay [8], the target named is Mycobacterium avium CAR (SEQ ID NO:153) Variant 1 of Table 14 (K275D N276S F278S A283C I300G N335D), Variant 34 A282P M296A F425T (Mycobacterium avium, UniProt A0ACD7BNV2, A282P/A283C/F278S/F425T/G391S/I300G/K275D/M296A/N276S/N335D). Kind of assay: CAR lysate assay with 30 mM 6ACA ± 0.25M HMD (Table 14), Variant 34. Conditions: Variant 34, Table 14, 6ACA.
Assay [9] deals with Mycobacterium avium CAR (SEQ ID NO:153) Variant 1 of Table 14 (K275D N276S F278S A283C I300G N335D), Variant 12 M296H (Mycobacterium avium, UniProt A0ACD7BNV2, A283C/F278S/G391S/I300G/K275D/M296H/N276S/N335D). Nature of the assay: CAR lysate assay with 30 mM 6ACA ± 0.25M HMD (Table 14), Variant 12. Particulars: Variant 12, Table 14, 6ACA.
In assay [10] the target is Mycobacterium avium CAR (SEQ ID NO:153) Variant 1 of Table 14 (K275D N276S F278S A283C I300G N335D), Variant 36 A282P M296A M389S N401T F425L (Mycobacterium avium, UniProt A0ACD7BNV2, A282P/A283C/F278S/F425L/G391S/I300G/K275D/M296A/M389S/N276S/N335D/N401T). Kind of assay: CAR lysate assay with 30 mM 6ACA ± 0.25M HMD (Table 14), Variant 36. Conditions: Variant 36, Table 14, 6ACA.

Assay [11] deals with carboxylic acid reductase (CAR). Particulars: 6ACA as substrate, 30 mM or 10 mM; HMD 125 mM or 0.25M.

In the case of `NCCCCCC(=O)O` [6ACA], the Vmax result in [1] is given as “+++ (>10.0)”; in assay [2], “++ (5.0-10.0)”; in assay [3] (CAR Variant 1, Table 15, 6ACA), “+++ (>10.0)”; in assay [4] it was “+++ (>10.0)”; in assay [5], “+ (<5)”; in assay [6], “++ (5.0-10.0)”. Further, the Vmax entry in [7] is reported as “++ (5.0-10.0)”; in [8] it was “+ (<5)”; in assay [9] it was “+++ (>10.0)”; in assay [10], “++ (5.0-10.0)”.

Turning to `NCCCCCCN` [HMD, hexamethylenediamine, reference compound], in assay [3] (CAR Variant 1, 0.25M HMD, 10 mM 6ACA), the “% inhibition @ 0.25M HMD & 10 mM 6ACA” value is on record as “++ (60-90)”. For the same molecule, the “inhibition of CAR in the presence of HMD” value in assay [11] is on record as “inhibited”.
